{
  "source": "patent US20210130780A1",
  "about": "“METHODS OF GENERATING ENUCLEATED ERYTHROID CELLS USING MYO-INOSITOL” (Rubius Therapeutics, Inc., priority 2019, published 2021)",
  "test_system": "Human CD34+ hematopoietic stem cells (HSCs) / erythroid progenitor cell cultures",
  "test": "Effect of myo-inositol on erythroid cell growth and enucleation (three-stage culture, maturation phase)",
  "conditions": "third culture medium (maturation phase, 24 well plate) supplemented with an additional 1 g/L myo-inositol vs not supplemented control (basal IMDM 0.0072 g/L), FACS-based cell counting",
  "procedure": "The effect of myo-inositol on erythroid progenitor cell cultures was examined. Human CD34^+ hematopoietic stem cells (HSCs) were cultured in a three-stage process to generate enucleated erythroid cells. In the first stage, the CD34+ HSCs were expanded in a T-flask in a first culture medium containing IMDM supplemented recombinant human insulin, recombinant human transferrin, recombinant human SCF, recombinant IL-3, recombinant Flt-3 ligand, and recombinant human IL-3. Subsequently, cells were transduced with a lentiviral vector encoding phenylalanine ammonia lyase. After transduction, cells were cultured in a 50 L bioreactor culture vessel containing a second culture medium containing IMDM, supplemented with recombinant human erythropoietin, recombinant human SCF, recombinant human IL3, recombinant human insulin, dexamethasone, and recombinant human transferrin. For the third stage of the process (maturation phase), an aliquot of cells were seeded into 24 well plate containing a third culture medium containing IMDM supplemented with recombinant human EPO, recombinant human SCF, recombinant human insulin, recombinant transferrin, human AB serum, and human plasma. […] Periodic sampling and cell counting was performed during the third stage using a fluorescence-activated cell sorting-based cell counter.",
  "data": [
    {"compound": "O[C@H]1[C@H](O)[C@@H](O)[C@H](O)[C@@H](O)[C@H]1O", "note": "[myo-inositol]", "values": [
      {"measurement": "total cell density of erythroid cells", "setting": "FIG. 1", "result": "significantly increase"},
      {"measurement": "enucleated erythroid cell density", "setting": "FIG. 2", "result": "significantly increase"}
    ]}
  ]
}
